From paper PMC10044120, “Potent and selective covalent inhibition of the papain-like protease from SARS-CoV-2” (Nature Communications, 2023)
Values joined by “and” are separate entries in the source; they are usually repeats but may differ in a detail not shown here. Identical values can stand only once. Like-named read-outs stand apart in the source and are kept apart here.

Assays:
[1] = test system: SARS-CoV-2 isolate USA-WA1/2020; settings: for inhibition: read-out: cytopathic effect, % cell viability, duplicate wells
USP4 = biological target: T1, USP4 (Homo sapiens, UniProt Q13107); experiment: DUB selectivity assay, USP4 (Ub-rhodamine110); format: biochemical
T1 construct: purchased LifeSensors, Inc. (Malvern, PA)
T1 sequence (Q13107 1-963): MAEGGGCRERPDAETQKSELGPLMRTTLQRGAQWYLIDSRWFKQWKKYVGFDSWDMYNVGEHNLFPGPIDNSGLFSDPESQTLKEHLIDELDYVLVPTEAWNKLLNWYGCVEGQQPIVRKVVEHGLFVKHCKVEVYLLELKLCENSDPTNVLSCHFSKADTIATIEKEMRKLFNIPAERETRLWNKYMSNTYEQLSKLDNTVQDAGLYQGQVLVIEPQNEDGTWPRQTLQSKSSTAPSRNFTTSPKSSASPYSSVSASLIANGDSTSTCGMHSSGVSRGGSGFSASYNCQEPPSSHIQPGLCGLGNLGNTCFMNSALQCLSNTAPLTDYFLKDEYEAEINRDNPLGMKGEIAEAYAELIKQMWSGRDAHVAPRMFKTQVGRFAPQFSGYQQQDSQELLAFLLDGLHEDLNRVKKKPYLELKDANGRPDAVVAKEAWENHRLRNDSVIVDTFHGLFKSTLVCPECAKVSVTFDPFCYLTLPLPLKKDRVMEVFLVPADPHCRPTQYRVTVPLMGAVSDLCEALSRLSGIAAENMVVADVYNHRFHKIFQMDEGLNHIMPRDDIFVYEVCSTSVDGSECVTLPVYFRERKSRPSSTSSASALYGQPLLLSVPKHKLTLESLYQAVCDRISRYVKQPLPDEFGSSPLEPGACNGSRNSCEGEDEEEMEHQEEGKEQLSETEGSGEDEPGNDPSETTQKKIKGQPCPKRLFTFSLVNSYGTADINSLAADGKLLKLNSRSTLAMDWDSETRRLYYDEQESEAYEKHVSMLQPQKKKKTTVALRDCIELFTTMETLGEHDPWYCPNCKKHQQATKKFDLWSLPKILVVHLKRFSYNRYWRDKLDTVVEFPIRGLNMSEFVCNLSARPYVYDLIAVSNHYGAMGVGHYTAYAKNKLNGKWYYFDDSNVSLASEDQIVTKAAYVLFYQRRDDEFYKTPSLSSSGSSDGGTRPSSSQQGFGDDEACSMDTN

[2] = Metabolic stability in mouse liver microsomes; settings: CD-1, mouse
PLpro = PLpro (Severe acute respiratory syndrome coronavirus 2, UniProt P0DTD1); experiment: Intact protein ESI-MS to assess covalent adduct formation; format: binding, SARS-CoV-2; parameters: unit not given here
[3] = Metabolic stability in human liver S9 fraction
USP2 = biological target: T2, USP2 (Homo sapiens, UniProt O75604); experiment: biochemical; settings: USP2 10 nM, Ub-rhodamine110
T2 construct: USP2c, USP4, USP7, USP8c, USP15, USP30WT, and UCH-L1; purchased LifeSensors, Inc. (Malvern, PA)
T2 sequence (O75604 267-599): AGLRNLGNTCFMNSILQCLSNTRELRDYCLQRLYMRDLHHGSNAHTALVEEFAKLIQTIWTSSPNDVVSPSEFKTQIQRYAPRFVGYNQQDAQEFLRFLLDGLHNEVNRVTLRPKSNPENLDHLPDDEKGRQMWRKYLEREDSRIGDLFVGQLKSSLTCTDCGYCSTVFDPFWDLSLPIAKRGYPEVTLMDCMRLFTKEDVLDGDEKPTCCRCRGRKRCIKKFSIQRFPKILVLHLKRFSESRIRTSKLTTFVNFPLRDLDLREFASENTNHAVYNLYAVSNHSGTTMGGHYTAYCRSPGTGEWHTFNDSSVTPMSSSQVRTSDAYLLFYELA

[4] = Metabolic stability in human liver microsomes
USP8 = biological target: T3, USP8 (Homo sapiens, UniProt P40818); experiment: biochemical; settings: USP8 10 nM, Ub-rhodamine110
T3 construct: USP2c, USP4, USP7, USP8c, USP15, USP30WT, and UCH-L1; purchased LifeSensors, Inc. (Malvern, PA)
T3 sequence (P40818 777-1109): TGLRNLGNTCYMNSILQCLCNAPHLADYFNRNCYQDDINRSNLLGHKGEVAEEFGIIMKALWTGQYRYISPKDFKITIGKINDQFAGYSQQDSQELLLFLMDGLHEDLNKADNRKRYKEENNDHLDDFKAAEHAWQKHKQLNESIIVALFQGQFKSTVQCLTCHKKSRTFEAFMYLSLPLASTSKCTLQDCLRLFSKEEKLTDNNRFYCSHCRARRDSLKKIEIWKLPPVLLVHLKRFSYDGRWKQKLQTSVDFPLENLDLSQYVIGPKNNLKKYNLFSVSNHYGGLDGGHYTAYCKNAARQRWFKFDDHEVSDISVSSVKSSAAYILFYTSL

[5] = Metabolic stability in mouse liver S9 fraction; settings: CD-1, mouse
[6] = Metabolic stability in rat liver S9 fraction; settings: Sprague-Dawley
SARS-CoV-2 PLpro = SARS-CoV-2 PLpro (Severe acute respiratory syndrome coronavirus 2, UniProt P0DTD1); experiment: biochemical; settings: PLpro 10 nM, ISG15-CHOP2
PLpro from SARS-CoV-2 = PLpro from SARS-CoV-2 (Severe acute respiratory syndrome coronavirus 2, UniProt P0DTD1); experiment: biochemical; format: biochemical; settings: for remaining activity at 20 µM: inhibitor 20.00 uM
USP7 = biological target: T4, USP7 (Homo sapiens, UniProt Q93009); experiment: biochemical; settings: USP7 5 nM, Ub-CHOP2
T4 construct: purchased LifeSensors, Inc. (Malvern, PA)
T4 sequence (Q93009 whole entry): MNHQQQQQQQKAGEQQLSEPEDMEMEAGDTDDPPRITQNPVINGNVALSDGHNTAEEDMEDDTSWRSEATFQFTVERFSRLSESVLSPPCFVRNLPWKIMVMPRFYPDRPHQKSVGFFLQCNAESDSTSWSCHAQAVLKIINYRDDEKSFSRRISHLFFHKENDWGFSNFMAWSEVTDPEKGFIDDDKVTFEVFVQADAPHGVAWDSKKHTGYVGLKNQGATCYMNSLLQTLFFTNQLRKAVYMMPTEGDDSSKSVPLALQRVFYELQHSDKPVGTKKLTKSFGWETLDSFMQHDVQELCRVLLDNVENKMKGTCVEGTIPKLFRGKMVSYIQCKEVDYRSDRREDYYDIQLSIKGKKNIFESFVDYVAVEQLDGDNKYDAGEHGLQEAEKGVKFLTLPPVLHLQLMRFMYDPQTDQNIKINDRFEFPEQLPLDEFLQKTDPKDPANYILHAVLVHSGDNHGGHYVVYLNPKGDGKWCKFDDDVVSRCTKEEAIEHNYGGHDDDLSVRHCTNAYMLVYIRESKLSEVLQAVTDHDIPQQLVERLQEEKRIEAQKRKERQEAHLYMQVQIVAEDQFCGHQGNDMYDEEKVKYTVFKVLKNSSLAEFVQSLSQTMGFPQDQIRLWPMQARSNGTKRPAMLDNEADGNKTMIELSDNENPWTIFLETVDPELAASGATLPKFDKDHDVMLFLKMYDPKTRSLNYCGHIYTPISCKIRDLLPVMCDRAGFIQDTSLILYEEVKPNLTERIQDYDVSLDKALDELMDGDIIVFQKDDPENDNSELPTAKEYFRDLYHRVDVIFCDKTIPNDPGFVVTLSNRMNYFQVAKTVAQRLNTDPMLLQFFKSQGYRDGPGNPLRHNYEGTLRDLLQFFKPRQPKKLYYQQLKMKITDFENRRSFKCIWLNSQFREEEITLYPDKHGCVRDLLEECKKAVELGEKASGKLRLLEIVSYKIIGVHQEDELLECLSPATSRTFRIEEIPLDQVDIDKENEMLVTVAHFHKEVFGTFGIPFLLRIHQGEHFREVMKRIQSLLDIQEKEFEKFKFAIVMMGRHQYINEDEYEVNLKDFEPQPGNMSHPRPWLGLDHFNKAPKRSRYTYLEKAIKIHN

Structure (SMILES) | inhibition ([1]; [inhibitor] 2.08 uM, 2.08 µM) [%] | inhibition ([1]; [inhibitor] 8.33 uM, 8.33 µM) | inhibition ([1]; [inhibitor] 16.65 uM, 16.65 µM) [%] | half-life [2] [min] | microsomal CLint [2] [µL/min/mg] | Measured adduct mass (PLpro) | half-life [3] [min] | microsomal CLint [3] [µL/min/mg] | IC50 (USP2) [µM] | half-life [4] [min] | microsomal CLint [4] [µL/min/mg] | IC50 (USP8) [µM] | half-life [5] [min] | microsomal CLint [5] [µL/min/mg] | half-life [6] [min] | microsomal CLint [6] [µL/min/mg] | Hill slope (SARS-CoV-2 PLpro) | remaining activity at 20 µM (PLpro from SARS-CoV-2; 0.5 h) [%] | IC50 (USP7) [µM] | other results
C[C@@H](NC(=O)c1ccccc1CCC(=O)NNC(=O)CCl)c1cccc2ccccc12 [Compound 9, (R)-2-(3-(2-(2-chloroacetyl)hydrazineyl)-3-oxopropyl)-N-(1-(naphthalen-1-yl)ethyl)benzamide] | 12 | 17.9% | 21 | 5 | 1330 | 401 | 3 | 689 | > 30 | 7 | 975 | > 30 | 4 | 544 | 16 | 140 | 0.817 | 17.8 | > 30 | IC50 (USP4; USP4 10 nM, Ub-rhodamine110, read-out: IC50): > 30 µM; IC50 (SARS-CoV-2 PLpro): 20.2 µM; remaining activity at 6.34 µM (PLpro from SARS-CoV-2; 0.5 h, inhibitor 6.34 uM): 38.1%; IC50 (PLpro from SARS-CoV-2; after 30-min incubation, purified PLpro, Z-RLRGG-AMC substrate): 5.4 µM
COC(=O)/C=C/C(=O)NNC(=O)CCc1ccccc1C(=O)N[C@H](C)c1cccc2ccccc12 [Compound 7, methyl(R,E)-4-(2-(3-(2-((1-(naphthalen-1 yl)ethyl)carbamoyl)phenyl)propanoyl)hydrazineyl)-4-oxobut-2-enoate] | 65 | 95.3% and 73.5% | 97 | 13 | 540 | 474 | 60 | 38.9 | > 30 | 50 | 139 | > 30 | 9 | 266 | 31 | 75.5 | 1.34 | 2.85 | > 30 | % cell viability, cytopathic effect ([1]; 2.08 uM): 64.9953%; % cell viability, cytopathic effect ([1]; 8.33 uM): 95.2833% and 73.4931%; % cell viability, cytopathic effect ([1]; 16.65 uM): 97.0077%; IC50 (USP4): > 30 µM; remaining activity at 0.06 µM (PLpro from SARS-CoV-2; 0.5 h, 0.06 uM inhibitor): 66.6%; remaining activity at 0.2 µM (PLpro from SARS-CoV-2; 0.5 h, 0.20 uM inhibitor): 17.4%; remaining activity at 20.03 µM (PLpro from SARS-CoV-2; 0.5 h, 20.03 uM inhibitor): 2.85%; remaining activity at 200 µM (PLpro from SARS-CoV-2; 0.5 h, 200.00 uM inhibitor, 30-min preincubation): 4.35%; remaining activity at 0.06 µM (PLpro from SARS-CoV-2; 0.5 h, inhibitor 0.06 uM): 66.6%; remaining activity at 0.2 µM (PLpro from SARS-CoV-2; 0.5 h, inhibitor 0.20 uM): 17.4%; remaining activity at 200 µM (PLpro from SARS-CoV-2; 0.5 h, inhibitor 200.00 uM): 4.35%
